Assay results reported in US20250215030A1, “STAT MODULATORS AND USES THEREOF” (Recludix Pharma, Inc., priority 2022, published 2025).

Columns and labels:
pSTAT3 (pY705-STAT3) = biological target: T1, pSTAT3 (pY705-STAT3) (Homo sapiens, UniProt P40763); test: MSD-pSTAT-PBMC Assay (pSTAT3, IL-6 stimulated); type: cell-based; conditions: PBMC, compound 3 hrs, then 10 ng/mL IL-6 for 10 min; MSD pY705-STAT3; read-out: pSTAT3
T1 construct: host or cells: cryopreserved PBMC
Summary of the method: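 Human PBMCs (50,000 cells/well for STAT3, 25,000 for STAT6) treated with compound 3 h, then stimulated 10 min with 10 ng/mL IL-6 or 1 ng/mL IL-4. Lysate pSTAT3 (pY705) or pSTAT6 (pY641) measured by MSD sandwich electrochemiluminescence. Signal minus unstimulated, normalized to DMSO; IC50 by variable-slope nonlinear regression.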

pSTAT6 (pY641-STAT6) = biological target: T2, pSTAT6 (pY641-STAT6) (Homo sapiens, UniProt P42226); test: MSD-pSTAT-PBMC Assay (pSTAT6, IL-4 stimulated); type: cell-based; conditions: compound 3 hrs, then 1 ng/mL IL-4 for 10 min
T2 construct: host or cells: cryopreserved PBMC
T2 sequence (P42226 1-847): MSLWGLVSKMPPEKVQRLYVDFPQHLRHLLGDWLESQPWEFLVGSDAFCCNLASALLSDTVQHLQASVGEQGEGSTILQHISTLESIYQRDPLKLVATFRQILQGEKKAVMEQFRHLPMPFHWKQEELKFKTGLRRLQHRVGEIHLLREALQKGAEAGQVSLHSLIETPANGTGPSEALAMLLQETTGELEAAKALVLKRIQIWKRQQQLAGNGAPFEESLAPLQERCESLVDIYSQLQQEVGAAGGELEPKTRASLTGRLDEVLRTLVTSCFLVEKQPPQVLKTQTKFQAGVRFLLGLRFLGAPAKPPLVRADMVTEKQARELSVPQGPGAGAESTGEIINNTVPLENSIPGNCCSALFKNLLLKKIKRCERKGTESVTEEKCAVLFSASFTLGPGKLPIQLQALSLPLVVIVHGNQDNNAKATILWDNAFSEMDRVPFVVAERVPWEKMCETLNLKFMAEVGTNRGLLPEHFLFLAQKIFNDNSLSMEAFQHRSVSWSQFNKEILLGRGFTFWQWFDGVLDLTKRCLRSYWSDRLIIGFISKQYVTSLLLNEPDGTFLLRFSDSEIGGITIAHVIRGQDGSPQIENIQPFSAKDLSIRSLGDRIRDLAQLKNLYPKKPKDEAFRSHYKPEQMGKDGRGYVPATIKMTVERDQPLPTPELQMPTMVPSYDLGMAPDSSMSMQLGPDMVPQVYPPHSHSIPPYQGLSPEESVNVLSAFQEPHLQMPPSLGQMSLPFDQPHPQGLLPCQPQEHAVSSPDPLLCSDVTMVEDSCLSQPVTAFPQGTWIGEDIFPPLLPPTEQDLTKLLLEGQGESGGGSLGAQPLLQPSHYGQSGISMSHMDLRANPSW
From the text: Cryopreserved Peripheral Blood Mononuclear Cells (PBMC) are from AllCells. Recombinant Human IL-4 and IL-6 are from Peprotech. Mouse monoclonal anti-STAT3 antibody, rabbit monoclonal anti-pY705-STAT3 antibody, rabbit monoclonal Anti-pY641-STAT6 antibody, and lysis buffer are from Cell Signaling Technology (CST). Mouse monoclonal anti-STAT6 antibody is from BioLegend. Assay plates, blocker, and anti-rabbit secondary antibody are from Meso Scale Discovery (MSD).
Cryopreserved PBMCs were thawed out and allowed to recover overnight in IMDM+10% heat-inactivated FBS prior to plating 50,000 (STAT3) or 25,000 (STAT6) cells per well in 96-well U-bottom tissue culture plates. Cells were treated with compound for 3 hrs, then stimulated with 10 ng/mL IL-6 (STAT3) or 1 ng/mL IL-4 (STAT6) for 10 min. Cells were then spun down and washed with ice-cold PBS prior to lysing the cell pellet with 1× lysis buffer (CST) with 1× HALT protease and phosphatase inhibitor cocktail (Thermo). Lysates were transferred to and incubated overnight at 4° C. with shaking in QuickPlex 96-well high bind assay plates (MSD) pre-coated overnight with 30 μL per well of 0.6 μg/mL mouse monoclonal anti-STAT3 antibody (STAT3) or 2 μg/mL mouse monoclonal anti-STAT6 antibody (STAT6) in 1×PBS, and pre-blocked for 1 hour with 3% Blocker-A (MSD). Captured protein in the assay plates were then washed and probed with 25 μL per well of 0.25 μg/ml rabbit monoclonal anti-pY705-STAT3 antibody (STAT3) or 0.18 μg/ml rabbit monoclonal Anti-pY641-STAT6 antibody (STAT6) in 1% Blocker-A for 1 hour at room temperature with shaking, then washed and probed with 25 ul per well of 1 ug/mi Sulfo-TAG Labeled Goat Anti-Rabbit Antibody (MSD) in 1% Blocker-A for 1 hour at room temperature with shaking. Assay plates were then washed and 150 μL of 1× Read Buffer-T (MSD) was added to each well prior to reading on an SQ120 MSD Plate Reader. Assay signal from each sample was subtracted by the signal from unstimulated control wells and normalized to DMSO control wells. IC50 values were calculated using Graph Pad Prism Dose-Response Nonlinear Regression with variable slope. For both pSTAT3 and pSTAT6 A=≤100 nM; B=>100-1000 nM; C=>1000-3000 nM; and D=>3 μM.

T1 sequence (P40763 whole entry): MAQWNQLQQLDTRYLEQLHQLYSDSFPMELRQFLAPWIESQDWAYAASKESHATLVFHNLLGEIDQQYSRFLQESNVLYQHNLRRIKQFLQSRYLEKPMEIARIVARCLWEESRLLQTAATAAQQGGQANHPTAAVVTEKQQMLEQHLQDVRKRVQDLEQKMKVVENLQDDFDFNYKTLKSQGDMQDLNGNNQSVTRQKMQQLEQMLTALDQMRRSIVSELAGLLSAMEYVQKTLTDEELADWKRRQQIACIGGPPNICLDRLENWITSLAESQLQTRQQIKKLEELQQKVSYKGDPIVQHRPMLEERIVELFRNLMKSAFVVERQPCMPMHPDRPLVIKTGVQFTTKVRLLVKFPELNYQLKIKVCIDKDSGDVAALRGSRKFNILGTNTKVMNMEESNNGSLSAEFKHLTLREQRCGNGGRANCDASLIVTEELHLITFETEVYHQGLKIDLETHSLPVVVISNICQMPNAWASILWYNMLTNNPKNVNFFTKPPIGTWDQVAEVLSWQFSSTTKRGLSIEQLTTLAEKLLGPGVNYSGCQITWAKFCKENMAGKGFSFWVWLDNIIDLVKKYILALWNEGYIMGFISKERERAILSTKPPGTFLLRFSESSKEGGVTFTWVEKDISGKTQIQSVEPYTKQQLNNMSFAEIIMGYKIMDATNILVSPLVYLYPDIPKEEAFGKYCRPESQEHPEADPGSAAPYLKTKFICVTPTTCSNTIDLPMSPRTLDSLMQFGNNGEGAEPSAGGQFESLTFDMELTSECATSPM

SMILES | IC50 (pSTAT3 (pY705-STAT3)) [nM] | IC50 (pSTAT6 (pY641-STAT6)) [nM]
CC(C)(C)C(=O)OCOP(=O)(OCOC(=O)C(C)(C)C)C(F)(F)c1ccc2sc(C(=O)N[C@H]3C[C@@H]4C[C@@H]4C[C@H]4CC[C@@H](C(=O)N[C@@H]5CCN(c6cccnc6)C5)N4C3=O)cc2c1 [Compound 212, (((difluoro(2-(((3S,6S,7aS, 8aR,9aR)-5-oxo-3-(((R)-1-(pyridin-3-yl)pyrrolidin-3-yl)carbamoyl)decahydro-1H-cyclopropa[d]pyrrolo[1,2-a]azocin-6-yl)carbamoyl)benzo[b]thiophen-5-yl)methyl)phosphoryl)bis(oxy)) bis(methylene) bis(2,2-dimethyl-propanoate)] | < 100 | > 3000
CC(C)(C)C(=O)OCOP(=O)(OCOC(=O)C(C)(C)C)C(F)(F)c1ccc2sc(C(=O)N[C@H]3C[C@@H]4C[C@@H]4C[C@H]4CC[C@@H](C(=O)N5C[C@@H](C#N)[C@H](c6ccccc6)C5)N4C3=O)cc2c1 (relative stereo) [Compound 139, ((((2-(((3S,6S,7aR, 8aS,9aR)-3-((rel-trans)-3-cyano-4-phenyl-pyrrolidine-1-carbonyl)-5-oxodecahydro-1H-cyclopropa [d]pyrrolo[1,2-a]azocin-6-yl)carbamoyl)benzo[b]thiophen-5-yl)difluoro-methyl)phosphoryl)bis(oxy)) bis(methylene) bis(2,2-dimethylpro-panoate)] | < 100 | < 100
CC(C)(C)C(=O)OCOP(=O)(OCOC(=O)C(C)(C)C)C(F)(F)c1ccc2sc(C(=O)N[C@H]3C[C@@H]4C[C@@H]4C[C@H]4CC[C@@H](C(=O)N5CCN(C(=O)c6cn[nH]c6)CC5)N4C3=O)cc2c1 [Compound 211, ((((2-(((3S,6S,7aS, 8aR,9aR)-3-(4-(1H-pyrazole-4-carbonyl)piperazine-1-carbonyl)-5-oxodecahydro-1H-cyclopropa[d]pyrrolo[1,2-a]azocin-6-yl)carbamoyl)benzo[b]thiophen-5-yl)difluoromethyl)phosphoryl)bis(oxy)) bis(methylene) bis(2,2-dimethyl-propanoate)] | 100 to 1000 | > 3000
CCCC(=O)SCCOP(=O)(Cc1ccc2sc(C(=O)N[C@H]3C[C@@H]4C[C@@H]4C[C@H]4CC[C@@H](C(=O)N5CC(C(=O)N6CCOCC6)C5)N4C3=O)cc2c1)OCCSC(=O)CCC [Compound 149, S,S′-(((((2-(((3S,6S,7aS, 8aR,9aR)-3-(3-(morpholine-4-carbonyl)azetidine-1-carbonyl)-5-oxodecahydro-1H-cyclopropa[d]pyrrolo[1,2-a]azocin-6-yl)carbamoyl)benzo[b]thiophen-5-yl)methyl)phosphoryl)bis(oxy))bis(ethane-2,1-diyl)) dibutanethioate] | 1000 to 3000 | > 3000
CC(C)(CO)C(=O)SCCOP(=O)(Cc1ccc2sc(C(=O)N[C@H]3C[C@@H]4C[C@@H]4C[C@H]4CC[C@@H](C(=O)N5CC(n6ccnc6)C5)N4C3=O)cc2c1)OCCSC(=O)C(C)(C)CO [Compound 146, S,S′-(((((2-(((3S,6S,7aS, 8aR,9aR)-3-(3-(1H-imidazol-1-yl)azetidine-1-carbonyl)-5-oxodecahydro-1H-cyclopropa[d]pyrrolo[1,2-a]azocin-6-yl)carbamoyl)benzo[b]thiophen-5-yl)methyl)phosphoryl)bis(oxy))bis(ethane-2,1-diyl)) bis(3-hydroxy-2,2-dimethyl-propanethioate)] | > 3000 | > 3000
O=C(OCOP(=O)(Cc1ccc2sc(C(=O)N[C@H]3C[C@H]4C[C@H]4C[C@H]4CC[C@@H](C(=O)N5CC(c6cccnc6)C5)N4C3=O)cc2c1)OCOC(=O)OC1CCOCC1)OC1CCOCC1 [Compound 135, ((((2-(((3S,6S,7aR, 8aS,9aR)-5-oxo-3-(3-(pyridin-3-yl)azetidine-1-carbonyl)decahydro-1H-cyclopropa[d]pyrrolo[1,2-a]azocin-6-yl)carbamoyl)benzo[b]thiophen-5-yl)methyl)phosphoryl)bis(oxy)) bis(methylene) bis(tetrahydro-2H-pyran-4-yl) bis(carbonate)] | < 100 | > 3000
CC(C)CC(=O)SCCOP(=O)(Oc1ccccc1)C(F)(F)c1ccc2sc(C(=O)N[C@H]3C[C@H]4C[C@H]4C[C@H]4CC[C@@H](C(=O)N5CC(c6cccnc6)C5)N4C3=O)cc2c1 (stereo partly drawn) [Compound 193, S-(2-(((difluoro(2-(((3S,6S,7aR, 8aS,9aR)-5-oxo-3-(3-(pyridin-3-yl)azetidine-1-carbonyl)decahydro-1H-cyclopropa[d]pyrrolo[1,2-a]azocin-6-yl)carbamoyl)benzo[b]thiophen-5-yl)methyl) (phenoxy)phosphoryl)oxy)ethyl) 3-methylbutane thioate] | < 100 | > 3000
CC(C)(C)C(=O)SCCOP(=O)(Cc1ccc2sc(C(=O)N[C@H]3C[C@H]4C[C@H]4C[C@H]4CC[C@@H](C(=O)N5CC(c6cccnc6)C5)N4C3=O)cc2c1)OCCSC(=O)C(C)(C)C [Compound 223, S,S′-(((((2-(((3S,6S,7aR, 8aS,9aR)-5-oxo-3-(3-(pyridin-3-yl)azetidine-1-carbonyl)decahydro-1H-cyclopropa[d]pyrrolo[1,2-a]azocin-6-yl)carbamoyl)benzo[b]thiophen-5-yl)methyl)phosphoryl)bis(oxy))bis(ethane-2,1-diyl)) bis(2,2-dimethyl-propanethioate)] | 100 to 1000 | > 3000
CC(=O)N1C[C@@H](F)[C@@H](NC(=O)[C@@H]2CC[C@@H]3C[C@@H]4C[C@@H]4C[C@H](NC(=O)c4cc5cc(C(F)(F)P(=O)(OCCSC(=O)CC(C)C)OCCSC(=O)CC(C)C)ccc5s4)C(=O)N32)C1 [Compound 142, S,S′-(((((2-(((3S,6S,7aR, 8aS,9aR)-3-(((3S,4R)-1-acetyl-4-fluoropyrrolidin-3-yl)carbamoyl)-5-oxodecahydro-1H-cyclopropa [d]pyrrolo[1,2-a]azocin-6-yl)carbamoyl)benzo[b]thiophen-5-yl)difluoromethyl)phosphoryl)bis(oxy))bis(ethane-2,1-diyl)) bis(3-methylbutane thioate)] | < 100 | 1000 to 3000
CC(C)OC(=O)CNP(=O)(Oc1ccccc1)C(F)(F)c1ccc2sc(C(=O)N[C@H]3C[C@@H]4C[C@@H]4C[C@H]4CC[C@@H](C(=O)N5CC(C(=O)N6CCOCC6)C5)N4C3=O)cc2c1 (stereo partly drawn) [Example 2, isopropyl ((difluoro(2-(((3S,6S,7aS,8aR,9aR)-3-(3-(morpholine-4-carbonyl)azetidine-1-carbonyl)-5-oxodecahydro-1H-cyclopropa[d]pyrrolo[1,2-a]azocin-6-yl)carbamoyl)benzo[b]thiophen-5-yl)methyl)(phenoxy)phosphoryl)glycinate] | > 3000 | > 3000
